In the first assay the target is hQC (Homo sapiens, UniProt Q16769). Kind of assay: Fluorometric assay of glutaminyl cyclase (QC) inhibition, H-Gln-βNA or H-Gln-AMC substrate. Format: biochemical. The note with it: compound from preparative synthesis, purified by chromatography; fluorescent assay; read-out: IC50 hQC. In a few lines: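 Fluorometric coupled assays at 30° C in Tris/HCl pH 8.0 with EDTA and pyroglutamyl aminopeptidase used either 0.2 mM H-Gln-βNA (320/410 nm) or H-Gln-AMC (380/460 nm), started by QC. Screening used 4 mM inhibitor at substrate 1 KM. Ki came from fitting progress curves to competitive inhibition.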
Chain of hQC (Q16769 29-361): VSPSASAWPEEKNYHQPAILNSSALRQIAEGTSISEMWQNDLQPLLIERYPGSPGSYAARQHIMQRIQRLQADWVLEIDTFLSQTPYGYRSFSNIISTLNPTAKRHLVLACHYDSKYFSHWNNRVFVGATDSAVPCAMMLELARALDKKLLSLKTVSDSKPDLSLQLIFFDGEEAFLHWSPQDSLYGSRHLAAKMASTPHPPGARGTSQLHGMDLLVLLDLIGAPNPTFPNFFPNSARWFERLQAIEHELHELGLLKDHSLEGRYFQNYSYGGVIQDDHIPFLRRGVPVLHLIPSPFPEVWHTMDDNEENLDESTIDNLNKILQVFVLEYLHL
What is called IC50 is the midpoint of a concentration-inhibition curve. In the case of `O=C1N/C(=N/c2ccc3c(c2)OCCO3)C(c2ccc(Br)cc2)N1c1ccc2[nH]cnc2c1` (centres unmarked) [Compound 331, 1-(1H-Benzoimidazol-5-yl)-5-(4-bromo-phenyl)-4-[2,3-dihydro-benzo[1,4]dioxin-6-ylimino]-imidazolidin-2-one], the IC50 was 0.0668 µM.

Staying with this assay, now noted: read-out: IC50.
With `O=C1CCCN1CCC/N=C1/NC(=O)N(c2ccc3[nH]cnc3c2)C1c1cccc(Br)c1` (centres unmarked) [Compound 241, 1-(1H-Benzoimidazol-5-yl)-5-(3-bromo-phenyl)-4-3-(2-oxo-pyrrolidin-1-yl)-propylimino-imidazolidin-2-one], the IC50 is 0.004 µM. On the same count and under the same terms, then `CCCCC1C(=Nc2ccc(Oc3ccccc3)cc2)NC(=O)N1CCCn1ccnc1` (centres unmarked) [Compound 103, 5-Butyl-1-(3-imidazol-1-yl-propyl)-4-4-phenoxy-phenylimino-imidazolidin-2-one], with 9.4 µM; and “1-(1H-Benzoimidazol-5-yl)-5-benzo[c][1,2,5]-5-yl-4-2-bromo-phenylimino-imidazolidine-2-thione [Compound 295]”, with 7.6 µM; and `S=C1N/C(=N/Cn2nnc3ccccc32)C(c2ccc3c(c2)OCO3)N1c1ccc2[nH]cnc2c1` (centres unmarked) [Compound 176, 5-Benzo1,3dioxol-5-yl-1-(1H-benzoimidazol-5-yl)-4-benzotriazol-1-ylmethylimino-imidazolidine-2-thione], with 1.3 µM. Still for that read-out and setting: then `Cc1ccc2occ(C3/C(=N/C4CCCCC4O)NC(=S)N3c3ccc4[nH]cnc4c3)c(=O)c2c1` (centres unmarked) [Compound 203, 3-{3-(1H-Benzoimidazol-5-yl)-5-2-hydroxy-cyclohexylimino-2-thioxo-imidazolidin-4-yl}-6-methyl-chromen-4-one], with 5.8 µM; and `S=C1N/C(=N\c2ccccc2Br)C(c2ccc3ccccc3c2)N1c1ccc2nc[nH]c2c1` (centres unmarked) [Compound 264, 1-(3H-Benzoimidazol-5-yl)-4-2-bromo-phenylimino-5-naphthalen-2-yl-imidazolidine-2-thione], with 8.5 µM. `O=C1NC(c2cc(F)cc(F)c2)/C(=N\CC(O)c2ccccc2)N1c1ccc2[nH]cnc2c1` (centres unmarked) [Compound 153, 1-(1H-Benzoimidazol-5-yl)-5-(3,5-difluoro-phenyl)-4-2-hydroxy-2-phenyl-ethylimino-imidazolidin-2-one]: the half-inhibitory concentration (IC50) stood at 0.4 µM. The same measure, in the same setting: then `CCCCC1/C(=N/Cc2cc(OC)c(OC)c(OC)c2)NC(=O)N1CCCn1ccnc1` (centres unmarked) [Compound 27, 5-Butyl-1-(3-imidazol-1-yl-propyl)-4-3,4,5-trimethoxy-benzylimino-imidazolidin-2-one], with 5.8 µM.

For the compound `S=C1N/C(=N/CCCc2ccccc2)C(c2cc(Br)cc(Br)c2)N1c1ccc2[nH]cnc2c1` (centres unmarked) [Compound 131, 1-(1H-Benzoimidazol-5-yl)-5-(3,5-dibromo-phenyl)-4-3-phenyl-propylimno-imidazolidine-2-thione], the concentration for half-maximal inhibition (IC50) came out at 5.8 µM.

As for `CN(C)c1ccc(C2/C(=N/C3CCc4ccccc43)NC(=O)N2c2ccc3[nH]cnc3c2)cc1` (centres unmarked) [Compound 242, 1-(1H-Benzoimidazol-5-yl)-5-(4-dimethylamino-phenyl)-4-indan-1-ylimino-imidazolidin-2-one], the IC50 was 0.004 µM.

In the case of `O=C1N/C(=N/C2CC2)C(c2ccc(Cl)c(F)c2)N1c1ccc2[nH]cnc2c1` (centres unmarked) [Compound 117, 1-(1H-Benzoimidazol-5-yl)-5-(4-chloro-3-fluoro-phenyl)-4-cyclopropylimino-imidazolidin-2-one], the IC50 turned out to be 1.3 µM. The same measure, in the same setting: then `CCCCC1/C(=N\C)NC(=O)N1CCCn1ccnc1` (centres unmarked) [Compound 16, 5-Butyl-1-(3-imidazol-1-yl-propyl)-4-methylimino-imidazolidin-2-one], with 7.6 µM; and `CC1=CC(C)C(C2/C(=N/CC(=O)N3CCCN(C)CC3)NC(=O)N2c2ccc3[nH]cnc3c2)CC1` (centres unmarked) [Compound 243, 1-(1H-Benzoimidazol-5-yl)-5-(2,4-dimethyl-cyclohex-3-enyl)-4-2-(4-methyl-1,4diazepan-1-yl)-2-oxo-ethylimino-imidazolidin-2-one], with 5.8 µM; and `O=C1N/C(=N\C2CCc3ccccc32)CN1c1ccc2[nH]cnc2c1` (centres unmarked) [Compound 198, 1-(1H-Benzoimidazol-5-yl)-4-indan-1-ylimino-imidazolidin-2-one], with 4 µM. Same read-out and setting: then `CC1=CC(C)C(C2/C(=N/C3CCc4ccccc43)NC(=O)N2c2ccc3[nH]cnc3c2)CC1` (centres unmarked) [Compound 193, 1-(1H-Benzoimidazol-5-yl)-5-(2,4-dimethyl-cyclohex-3-enyl)-4-indan-1-ylimino-imidazolidin-2-one], with 4.9 µM; and `O=C1N/C(=N/c2ccc3c(c2)OCCO3)C(c2ccc(Br)cc2)N1c1ccc2[nH]cnc2c1` (centres unmarked) [Compound 331, 1-(1H-Benzoimidazol-5-yl)-5-(4-bromo-phenyl)-4-[2,3-dihydro-benzo[1,4]dioxin-6-ylimino]-imidazolidin-2-one], with 0.004 µM; and `O=C1N/C(=N\C(Cc2ccccc2)c2ccccc2)C(c2cc3c(cc2Br)OCO3)N1c1ccc2[nH]cnc2c1` (centres unmarked) [Compound 326, 1-(1H-Benzoimidazol-5-yl)-5-(6-bromo-benzo1,3dioxol-5-yl)-4-1,2-diphenyl-ethylimino-imidazolidin-2-one], with 0.004 µM.

Regarding `COC(=O)C(C)/N=C1\NC(=S)N(c2ccc3[nH]cnc3c2)C1c1ccc(C)cc1` (centres unmarked) [Compound 320, Methyl 2-(1-(1H-benzo[d]imidazol-5-yl)-2-thioxo-5-p-tolylimidazolidin-4-ylideneamino)propanoate], the IC50 turned out to be 5.8 µM. Still for that read-out and setting: then `O=C1N/C(=N\Cc2ccccc2)C(c2cccc(F)c2F)N1CCCn1ccnc1` (centres unmarked) [Compound 94, 4-Benzylimino-5-(2,3-difluoro-phenyl)-1-(3-imidazol-1-yl-propyl)-imidazolidin-2-one], with 5.8 µM; and `O=C1N/C(=N/Cn2nnc3ccccc32)CN1c1ccc2[nH]cnc2c1` [Compound 325, 1-(1H-Benzoimidazol-5-yl)-4-benzotriazol-1-ylmethylimino-imidazolidin-2-one], with 6.7 µM. The same measure, in the same setting: then `O=C(CN=C1NC(=O)N(c2ccc3[nH]cnc3c2)C1c1ccc2[nH]ccc2c1)N1CCC(O)C1` (centres unmarked) [Compound 222, 1-(1H-Benzoimidazol-5-yl)-4-2-(3-hydroxy-pyrrolidin-1-yl)-2-oxo-ethylimino-5-(1H-indol-5-yl)-imidazolidin-2-one], with 1.3 µM; and `C/N=C1/NC(=O)N(c2ccc3[nH]cnc3c2)C1c1ccc(Cl)c(F)c1` (centres unmarked) [Compound 339, 1-(1H-Benzoimidazol-5-yl)-5-(4-chloro-3-fluoro-phenyl)-4-methylimino-imidazolidin-2-one], with 0.4 µM.

`CC(C)/N=C1\NC(=O)N(c2ccc3[nH]cnc3c2)C1c1cccc(C#N)c1` (centres unmarked) [Compound 174, 3-{3-(1H-Benzoimidazol-5-yl)-5-isopropylimino-2-oxo-imidazolidin-4-yl}-benzonitrile]: the IC50 was found to be 0.4 µM. Same read-out and setting: then `CC1=CC(C)C(C2/C(=N/C(C)(C)CC(C)(C)C)NC(=S)N2c2ccc3nc[nH]c3c2)CC1` (centres unmarked) [Compound 200, 1-(3H-Benzoimidazol-5-yl)-5-(2,4-dimethyl-cyclohex-3-enyl)-4-1,1,3,3-tetramethyl-butylimino-imidazolidine-2-thione], with 5.8 µM; and `OC(CN=C1NC(=S)N(c2ccc3[nH]cnc3c2)C1c1cc(F)cc(F)c1)c1ccccc1` (centres unmarked) [Compound 229, 1-(1H-Benzoimidazol-5-yl)-5-(3,5-difluoro-phenyl)-4-2-hydroxy-2-phenyl-ethylimino-imidazolidine-2-thione], with 8.5 µM.
